{
  "source": "patent US20240423908A1",
  "about": "“Improved Nasal Administration of Parkinson's Therapeutics” (Cyrano Therapeutics, Inc., priority 2022, published 2024)",
  "format_in_all_cases": "in vivo",
  "key": {"[1]": {"test_system": "chemosensory dysfunction associated with Parkinson's disease", "assay": "Treatment of Parkinson's disease chemosensory dysfunction with intranasal theophylline (Example 9)", "details": "adult human male; about 0.4 ml per day of 3.1 mg/ml theophylline liquid composition, nasal spray twice daily in each naris; after 7 days", "method": "An adult human subject was treated for chemosensory dysfunction associated with Parkinson's disease. […] The subject was administered about 0.4 ml per day of a liquid composition comprising theophylline at a concentration of 3.1 mg/ml in a nasal spray device described herein. The subject administered the nasal spray twice daily in each naris."}, "[2]": {"test_system": "loss of taste associated with Parkinson's disease", "assay": "Treatment of chemosensory dysfunction in a Parkinson's disease patient (Example 5)", "details": "theophylline composition, nasal spray 2× daily in each naris", "description": "(§1) A subject is admitted to a clinic for loss of taste associated with Parkinson's disease. The subject is diagnosed with chemosensory dysfunction. The subject is prescribed a theophylline composition in a nasal spray device described herein. The subject administers the nasal spray in an effective dose 2× daily in each naris. The nasal spray is characterized by a spray containing a D50 of about 15 μm to about 24 μm, a D90 of from about 30 μm to about 50 μm, and where less than about 3% of the droplets in the plume of a spray have a size of less than about 10 μm."}, "[3]": {"test_system": "Alzheimer's disease", "assay": "Treatment of Alzheimer's disease with a nasal spray composition (Example 7)", "details": "donepezil composition, nasal spray 3× daily in each naris", "description": "as §1, with “confusion and inability to concentrate.” for “loss of taste associated with Parkinson's disease.”, “Alzheimer's disease.” for “chemosensory dysfunction.”, “donepezil” for “theophylline”, “3×” for “2×”"}, "[4]": {"test_system": "Parkinson's disease", "assay": "Treatment of Parkinson's disease with a nasal spray composition (Examples 4 and 6)", "description": "as §1, with “tremors and rigid muscles. The subject is diagnosed” for “loss of taste associated”, “is” for “is diagnosed with chemosensory dysfunction. The subject is”, “rolipram” for “theophylline”\nas §1, with “bradykinesia and impaired balance. The subject is diagnosed” for “loss of taste associated”, “is” for “is diagnosed with chemosensory dysfunction. The subject is”, “levodopa” for “theophylline”, “4×” for “2×”"}},
  "data": [
    {"smiles": "Cn1c(=O)c2[nH]cnc2n(C)c1=O", "note": "[theophylline]", "values": [
      {"measurement": "ability to taste and smell", "setting": "[1]", "value": "regained their ability to taste and smell"},
      {"measurement": "sense of taste", "setting": "[2]", "value": "regains the sense of taste"}
    ]},
    {"smiles": "COc1cc2c(cc1OC)C(=O)C(CC1CCN(Cc3ccccc3)CC1)C2", "note": "(centres unmarked) [donepezil]", "values": [
      {"measurement": "confusion and concentration", "setting": "[3]", "value": "reduced confusion and improved concentration"}
    ]},
    {"smiles": "COc1ccc(C2CNC(=O)C2)cc1OC1CCCC1", "note": "(centres unmarked) [rolipram]", "values": [
      {"measurement": "symptoms of Parkinson's disease", "setting": "[4]; rolipram composition, nasal spray 2× daily in each naris", "value": "reduced symptoms (e.g., reduced tremors and reduced muscle rigidity)"}
    ]},
    {"smiles": "N[C@@H](Cc1ccc(O)c(O)c1)C(=O)O", "note": "[levodopa]", "values": [
      {"measurement": "bradykinesia and balance", "setting": "[4]; levodopa composition, nasal spray 4× daily in each naris", "value": "reduced bradykinesia and improved balance"}
    ]}
  ]
}
